# From patent US9339541B2, “Thiophosphate nucleosides for the treatment of HCV” (priority 2013, dated 2016)
# Tested on: HCV genotype 1b replicon
# Format: cell-based
# Details: Huh-7-derived cell line (Zluc), HCV genotype 1b replicon with luciferase reporter, 72 hours of incubation
row,SMILES,EC50
1,"CCOc1nc(N)nc2c1ncn2[C@@H]1O[C@H](COP(=O)(N[C@@H](C)C(=O)OC(C)C)SCC2NC(=O)NC2=O)[C@@H](O)[C@@]1(C)F (single isomer, unassigned) [3b Diastereomer 1]",1 to 10 µM
2,"CC(C)OC(=O)[C@H](C)NP(=O)(OC[C@H]1O[C@@H](n2ccc(=O)[nH]c2=O)[C@](C)(O)[C@@H]1O)SCC1NC(=O)NC1=O (single isomer, unassigned) [4b Diastereomer 1]",> 10 µM
3,"CC(C)OC(=O)[C@@H](C)NP(=O)(OC[C@H]1O[C@@H](n2ccc(=O)[nH]c2=O)[C@](C)(Cl)[C@@H]1O)SC1CCCC1 (single isomer, unassigned) [8a Diastereomer 1]",> 10 µM
4,"CC(C)OC(=O)[C@H](C)NP(=O)(OC[C@H]1O[C@@H](n2ccc(=O)[nH]c2=O)[C@](C)(Cl)[C@@H]1O)SC1CCCC1 (single isomer, unassigned) [8b Diastereomer 1]",1 to 10 µM
5,COC(=O)N[C@@H](CSP(=O)(N[C@@H](C)C(=O)OC(C)C)OC[C@H]1O[C@@H](n2cnc3c(OC)nc(N)nc32)[C@](C)(O)[C@@H]1O)C(=O)OC(C)C (stereo partly drawn) [Compound 2by],1 to 10 µM
6,CCOC(=O)[C@H](C)NP(=O)(OC[C@H]1O[C@@H](n2cnc3c(OCC)nc(N)nc32)[C@](C)(O)[C@@H]1O)SCC (stereo partly drawn) [Compound 10b],≤ 0.25 µM
7,CCOC(=O)[C@H](C)NP(=O)(OC[C@H]1O[C@@H](n2cnc3c(=O)[nH]c(N)nc32)[C@](C)(O)[C@@H]1O)SCC (stereo partly drawn) [Compound 13b],1 to 10 µM
8,CCOC(=O)CCSP(=O)(N[C@@H](C)C(=O)OC(C)C)OC[C@H]1O[C@@H](n2ccc(=O)[nH]c2=O)[C@](C)(O)[C@@H]1O (stereo partly drawn) [Compound 15b],> 10 µM
9,COC(=O)CSP(=O)(N[C@@H](C)C(=O)OC(C)C)OC[C@H]1O[C@@H](n2ccc(=O)[nH]c2=O)[C@](C)(Cl)[C@@H]1O (stereo partly drawn) [Compound 17b],> 10 µM
